Measured values from patent US20130195956A1, “Transdermal Hormone Delivery” (Agile Therapeutics, Inc., priority 2012, published 2013).
Values joined by “and” are separate entries in the source; they are usually repeats but may differ in a detail not shown here. Identical values can stand only once.

Key:
[1] = cited from earlier work
[2] = 7 day in vitro skin permeation, Franz diffusion cells, hairless rat abdominal skin; conditions: for average cumulative amount permeated at the end of 7 days: donor: saturated solution in PEG-400, FIG. 6
Text: Skin was isolated from hairless rats (male, 8-10 weeks old and 350-400 g in weight) that were obtained from Charles River (Wilmington, Mass., USA). All the animals were allowed to acclimate for at least 1 week prior to their use in any experiment. […] Hairless rats were euthanized by carbon dioxide asphyxiation prior to the permeation experiment and abdominal skin was carefully excised using a pair of scissors and forceps. The underlying subcutaneous fat was removed from the excised skin and the abdominal skin thus obtained (˜1 mm thick) was used for the permeation experiments.
The 7 day permeation studies were performed using in vitro Franz diffusion cells (PermeGear, Inc., Hellertown, Pa., USA) having an effective diffusion surface area of 0.64 cm^2 (n≧3). […] These served as corresponding donor solutions. The receptor phase consisted of PEG 400 having gentamycin sulfate (80 mg/L). Gentamycin sulfate was added to the receptor phase to prevent microbial growth during the 7 day study. During the entire study, the receptor phase was maintained at 37° C. with constant stirring at 600 rpm. Freshly excised and cleaned hairless rat abdominal skin was obtained on the day of the experiment. This isolated skin was placed in between the donor and the receptor compartments and the entire set up was then secured in place using a clamp. Donor solution (0.5 ml) was then loaded into the donor cells using a pipette and the top was covered using parafilm and a silver foil. […] The only difference was that instead of using the saturated desogestrel solution as donor, desogestrel containing patches were used. Transdermal patches, large enough to cover the receptor compartment top, were cut out of the cast sheets, the release liner was removed and the patches were placed on the skin such that the adhesive side of the patch was facing the stratum corneum side of the skin. The donor cell was then placed and the entire set up was secured using a clamp. All samples obtained were analyzed using HPLC.
Analysis of the amount of drug in the samples was performed using a chromatographic method described in the literature with few modifications. […] Phenomenex RP C6 Luna 5μ column (Phenomenex, Torrance, Calif.) set at 35° C. was employed for gradient elution method. The mobile phase consisted of methanol and water. The gradient method was initiated with the use of a 70:30 (methanol:water) solution, followed by a change of the mobile phase composition to 100% methanol over the next 7 minutes. This methanol:water (100:0) composition was maintained till the 10th minute and then the mobile phase composition was changed again to a composition of 70:30 (methanol:water) by the 12th min. The run time of each injection was 15 minutes and the injection volume was 100 μl. The flow rate of the mobile phase throughout the run was 1.5 ml/min. […] The standard curve was linear over the range of 0.5-100 μg.
Student t-test and analysis of variance (ANOVA) were used to determine statistically significant differences. The p-value used in this study was 0.05.

[3] = Slide and patch crystallization studies for saturation solubility in adhesives and additives; type: physicochemical
Experimental: Drug in adhesive transdermal patches were prepared as follows. Predetermined amounts of drug, adhesive, ethyl acetate and/or additives (copovidone/mineral oil) were weighed into a glass container with lid and sealed using a parafilm to minimize loss of organic solvents. The formulation was stirred for 2 hours using a magnetic stirrer to form a homogenous mixture. The mixture was then cast on a release liner (3 mil fluoropolymer coated polyester film, Scotchpak™ 9744 from 3M) using a Gardner film casting knife (BYK-AG-4300 series, Columbia, Md., USA) and the cast sheet was dried in an oven at 60° C. for 17 minutes. Thereafter, the entire sheet was laminated using a backing membrane (2 mil polyester with an ethylene vinyl acetate copolymer, Scotchpak™ 9732 from 3M), which was placed on the cast film using a roller, ensuring no air pockets were formed. […]
The three different adhesives that were investigated for the preparation of desogestrel transdermal patches were two acrylate adhesives, Duro-Tak 87-4098 and Duro-Tak 87-202A, and one PIB adhesive, Duro-Tak 87-608A. […] The saturation solubility of desogestrel in these adhesives was determined using the slide method discussed earlier as well as crystallization studies on complete patches. […]

[4] = Skin permeation of LNG from LNG/EE patches with four enhancers, Franz diffusion cells, human skin compared with rat skin; type: in vitro ADME; conditions: patches of Example 1 with four skin permeation enhancers; FIGS. 1-4
Experimental: A skin permeation experiment for the delivery of LNG from the patches prepared in Example 1 was performed (n=3). Three separate patches were cut to appropriate size such that they would cover the top of the receptor compartment of a Franz skin diffusion cell (exposed surface area of 0.64 cm^2). Hairless rat skin was freshly excised before the permeation experiment. PBS (0.1×) having 80 mg/L gentamycin sulfate and 0.5% Volpo was used as the receptor buffer (pH 7.2). Samples (0.5 ml) were taken at predetermined time points (3 hr, 6 hr, 12 hr, 24 hr, 2nd, 3rd, 4th, 5th, 6th and 7th day) and were analyzed for LNG levels using High Pressure Liquid Chromatography (HPLC).
The average flux (FIG. 1) and the cumulative amount (FIG. 2) of LNG that permeated across the hairless rat skin, during a period of four days, were determined and are shown below. In addition, patches manufactured using production equipment under the same processes and containing exactly the same amounts and ingredients as the pilot patches mentioned in Example 1 were used for comparison.
The above studies were performed using rat skin, which, for many drugs, is known to have similar permeation characteristics as human skin. […]

[5] = Experimental: Sheets were cast with the blend shown in Table 1 and dried for 17 minutes at 60 degrees Centigrade. Drying was followed by lamination to a polyester backing membrane and circular cutting of individual patches. The dry formulation of the patches is shown in the second column of Table 1.
[6] = general statement in description

Row | average cumulative amount permeated at the end of 7 days ([2]; hairless rat skin) [μg/sq.cm] | skin permeation relative to ethinyl estradiol [2, 6] | skin permeation relative to levonorgestrel [2, 6] | average cumulative amount and flux from saturated PEG solution compared with optimized patches ([2]; p<0.05, hairless rat skin) | average flux and cumulative amount compared with levonorgestrel ([2]; saturated PEG-400 solutions, p<0.05, FIGS. 5 and 6) | saturation solubility in PIB adhesive (Duro-Tak 87-608A) ([3]; slides and patches) | saturation solubility in copovidone (Plasdone S-630) ([3]; slides, drug:copovidone w/w ratios, up to 6 months) | permeation through rat skin compared with permeation through human skin [4] | saturation of the patch with the hormone [5] [%] | SMILES | logP [1]
1 | 389.4±6.2 | higher | approximately ten-fold higher | significantly higher | significantly higher | 3-4 % w/w | 70-80 % w/w and 70 % w/w |  |  | C#C[C@]1(O)CC[C@H]2[C@@H]3CCC4=CCCC[C@@H]4[C@H]3C(=C)C[C@@]21CC [desogestrel] | 4
2 | 1.8±0.1 |  |  |  |  |  |  | very similar |  | C#C[C@]1(O)CC[C@H]2[C@@H]3CCC4=CC(=O)CC[C@@H]4[C@H]3CC[C@@]21CC [levonorgestrel] | 3.8
3 |  |  |  |  |  |  |  |  | 22 | C#C[C@]1(O)CC[C@H]2[C@@H]3CCc4cc(O)ccc4[C@H]3CC[C@@]21C [ethinyl estradiol] | 
